This is an account of results in patent publication US7713559B2, “Amorphous water-soluble calcium citrate salts and method of making and using same” (Kraft Foods Global Brands LLC, priority 2004, dated 2010).

Data set [1] in a line: pH and initial solution appearance of powders added to water at 1 percent. In kind it is physicochemical. As to conditions: powder added to water at a level of 1 percent. Here is the method: Powders prepared according to the present invention, as described above, were added to water at a level of 1 percent to measure pH and assess initial solution appearance. The crystalline commercial 3:2 mole ratio TCC reference material was included for comparison.

Data set [2] is described as follows: calcium-fortified powdered instant drink mixes reconstituted with cold water.
Description: One sample of the amorphous salt (2.0 g) was combined with 17.0 g sweetened Cherry Kool-Aid® powdered instant drink mix in a 400 ml beaker. The powdered drink mix contained sugar, fructose, citric acid, calcium phosphate (not a significant source of calcium), artificial flavor, artificial colors, and ascorbic acid. Another sample of the amorphous salt (2.0 g) was combined with 2.0 g artificially-sweetened Lemon CRYSTAL LIGHT® powdered instant drink mix and placed in a 400 ml beaker. The powdered drink mix contained citric acid, potassium citrate, maltodextrin, aspartame, magnesium oxide, natural flavor, lemon juice solids, acesulfame potassium, artificial colors, and BHA.
Data set [3] is described as follows: dissolution in water and freedom from haze and sediment at 350 mg calcium per eight fluid ounce serving. Format: physicochemical. From the text:
The solution remained completely free of haze and sediment for at least two days of storage at room temperature. Similar or even better results were obtained from the salts prepared having calcium:citrate mole ratios lower than 2:2, even when dissolved in water at higher concentrations.
These powders, in spite of the sediment produced, would provide very acceptable performance in many, if not most, food applications, including instant beverage mixes and acidified RTD beverages.
This behavior might also be acceptable in some situations (i.e., opaque instant beverage mixes), but appears to represent a practical upper limit for applications that require high levels of soluble calcium and/or require a sediment-free transparent appearance.
As an alternative to freeze drying, an amorphous 2:2 mole ratio calcium citrate salt, using the same ingredients as in Example 1, was also successfully produced via spray drying (i.e., pilot scale drying using standard operating conditions and procedures). In this case, chilled calcium hydroxide and citric acid solutions were combined and rapidly spray dried before solidification or sediment formation could occur. […] In a large scale commercial process, the citric acid and calcium hydroxide (or other suitable reagents) would be beneficially combined just prior to spray drying to limit the potential for solidification or sediment formation.
One batch of the chilled citric acid solution was poured into a mix tank jacketed with cooling water and one batch of calcium hydroxide suspension was added with stirring. […] The clear solution was immediately pumped into a semi-works scale spray dryer, fitted with an atomizing nozzle, at a flow rate of about 0.5 kg per minute. Additional batches of citric acid solution and calcium hydroxide suspension were similarly added to the mix tank as needed to prevent complete emptying. A sample of fine white powder was collected from the spray dryer after ten minutes of operation. […] After a further fifteen minutes, the cooling water was shut off from the jacketed mix tank. […] In less than one hour, the atomizing nozzle and pipe between the mix tank and the spray dryer became plugged with an accumulated deposit of insoluble crystalline calcium citrate.

Data set [4] can be described thus: shelf life testing of calcium-fortified RTD beverage. In kind it is physicochemical. As to conditions: CRYSTAL LIGHT RTD lemon beverage. On the procedure: Fortified RTD beverages were formulated with several forms of calcium citrate. The visual appearance, flavor, and stability of the products were evaluated over a seven-month period by an experienced panel. Identical samples of each fortified beverage were prepared for shelf life testing under both ambient (22° C.) and refrigerated (4° C.) storage conditions.
The freeze dried amorphous 2:2 mole ratio calcium citrate salt (17% calcium) of Example 1 was successfully used to fortify a ready-to-drink sugar-free lemon-flavored beverage (CRYSTAL LIGHT®) with 350 mg calcium per eight fluid ounce serving (“excellent source of calcium” level). To formulate the calcium-fortified powdered mix, eight fluid ounces of commercial CRYSTAL LIGHT® RTD beverage mix was mixed thoroughly with 2 g of the freeze dried amorphous 2:2 mole ratio calcium citrate salt.

The conditions of data set [5]: room temperature; cited from earlier work.
Where [6] appears, read: freeze dried powders of Example 1 or commercial salts, room temperature water, 350 mg calcium per eight fluid ounce serving.

For the compound `O=C([O-])CC(O)(CC(=O)O)C(=O)O.O=C([O-])CC(O)(CC(=O)O)C(=O)O.[Ca+2]` [1:2, monocalcium citrate], in data set [1], the “Initial Solution Appearance” value is “No haze; no sediment” and the “Solution pH” value is given as 3.4.

As for `O=C([O-])CC(O)(CC(=O)O)C(=O)[O-].[Ca+2]` [2:2, dicalcium citrate], the “dissolution when water was added to fortified drink mix” value in data set [2] (2.0 g salt with Cherry Kool-Aid or Lemon CRYSTAL LIGHT mix, eight fluid ounces cold water, no stirring) is “dissolved immediately”. In addition, the “time reconstituted beverage remained free of sediment” value in data set [2] (Cherry Kool-Aid and Lemon CRYSTAL LIGHT mixes, 350 mg calcium per serving) is reported as “at least 24 hours”. Further, in data set [1], the “Initial Solution Appearance” value was “No haze; no sediment” and the “Solution pH” value is 4.1. For the same compound, in data set [3] (freeze dried powder, 2 g in 240 ml water, storage at room temperature), the “time solution remained completely free of haze and sediment” value is “at least two”. In addition, in data set [3] (setting [6]), the “dissolution behaviour on addition to water” value (shortened to “dissolution behaviour”) is on record as “instantly dissolving clear solution”. Also, the “dissolution in cold water” value in data set [3] (larger spray dryer, sample collected after ten minutes of operation, feed cooled, 350 mg calcium per eight fluid ounces) is “rapidly dissolved in cold water without haze or precipitate”. The dissolution in water result in data set [3] (larger spray dryer, sample collected after thirty minutes, cooling water shut off) was “did not dissolve completely in water”. In addition, in data set [3] (spray dried salt of Example 2 (pilot scale), 2 g in 240 ml room temperature water, 350 mg calcium per eight ounce serving), the “dissolution behaviour” value is “instantly dissolving clear solution”. In addition, the “time solution remained completely free of sediment” value in data set [3] (spray dried salt of Example 2 (pilot scale), room temperature) was “at least three”. The “sediment in fortified RTD beverage during shelf life evaluation” value in data set [4] (350 mg calcium per eight fluid ounces, seven-month period, room temperature (22° C.) and refrigeration (4° C.)) was “remained sediment free”.

Consider “TCC tetrahydrate [3:2*, reference compound]”, for which, in data set [5], the solubility in water result is reported as “less than 0.1%” and the “soluble calcium provided per fluid ounce of water” value was “about 6 mg”. In addition, the “sediment formation in reconstituted beverage” value in data set [2] (1.7 g in place of the amorphous salt, Cherry Kool-Aid and Lemon CRYSTAL LIGHT mixes) was “large amounts of coarse gritty sediment were formed immediately”. Moreover, in data set [2] (with rapid stirring or with the passage of time), the “dissolution of the sediment” value was “did not dissolve”. Also, the “haze and sediment produced at first, on or soon after addition to water” value in data set [3] (350 mg calcium per eight fluid ounce serving) is “immediately produced a large amount of a coarse, gritty white sediment”. Also, the “dissolution behaviour” value in data set [3] (setting [6]) is listed as “did not completely disperse in water”. Besides, in data set [4] (amounts to provide the same level of calcium), the “sediment in fortified RTD beverage upon admixture of the ingredients” value was “noticeable sediment formation”.

In the case of sesqui-calcium citrate [1.5:2], in data set [1], the “Initial Solution Appearance” value was “No haze; no sediment” and the “Solution pH” value stood at 3.8.
